One assay relates to PA-IIL wild type. Particulars: cited from earlier work.
The subject of a further assay is RS-IIL. Also noted: method as in PMID 16768446. The note with it: cited from earlier work.
The target of another assay is PA-IIL S22A (Pseudomonas aeruginosa, UniProt Q9HYN5, S23A). In words: ITC binding of monosaccharides to PA-IIL mutant S22A. The note with it: for -TΔS: calculated from ΔG and ΔH.
A further assay has as its target PA-IIL S23A (Pseudomonas aeruginosa, UniProt Q9HYN5, S24A). As to the kind of experiment: ITC binding of monosaccharides to PA-IIL mutant S23A. The note with it: ITC at 25°C.
In another assay the target is PA-IIL G24N (Pseudomonas aeruginosa, UniProt Q9HYN5, G25N). As to the kind of experiment: ITC binding of monosaccharides to PA-IIL mutant G24N. The note with it: for ΔH / -TΔS: ITC at 25°C; for -TΔS: calculated from ΔG and ΔH.
Assay [1] has as its target PA-IIL lectin from Pseudomonas aeruginosa, mutant G24N (Pseudomonas aeruginosa). In words: crystal structure; mutants co-crystallised with fucose (hanging drop), soaked 24 h in 10 mM Me-α-D-Man or Me-α-L-Fuc; tetramer in the asymmetric unit.
For assay [2], the target named is PA-IIL lectin from Pseudomonas aeruginosa, mutant S22A (Pseudomonas aeruginosa). The assay is described as above.
The target in assay [3] is PA-IIL lectin from Pseudomonas aeruginosa, mutant S23A (Pseudomonas aeruginosa). The description is as above.
[4] abbreviates: PA-IIL wild type, ITC at 25°C, ref Sabin, C. et al, 2006 [14].
Setting [5] is: ITC at 25°C, comparison data, Figure 7 gives ref 18.

The values that follow come from paper PMC1903359, “Engineering of PA-IIL lectin from Pseudomonas aeruginosa – Unravelling the role of the specificity loop for sugar preference” (BMC Structural Biology, 2007).

pKd: −log10 of the molar value. Like-named read-outs stand apart in the source and are kept apart here. Some results are limits rather than exact numbers.

Turning to `CO[C@@H]1O[C@@H](C)[C@@H](O)[C@@H](O)[C@@H]1O` [Me-α-L-Fuc, methyl α-L-fucopyranoside], in the assay with PA-IIL wild type (setting [4]), the “-TΔS” value was 4.9 (± 1.0) kJ/mol, the KA was 235 (± 8.0) ×10^4M^-1, the pKd was 6.37 and the ΔG was -36.4 (± 0.1) kJ/mol. For the same compound, the ΔH in the assay on PA-IIL wild type (setting [4]) is -41.3 (± 1.0) kJ/mol. Also, in the assay with PA-IIL wild type (native (wild type) PA-IIL, sign as TΔS), the “entropic contribution TΔS” value is -1.17 kcal/mol. Besides, the KA in the assay on RS-IIL (footnote b: value < 10^4 M^-1) was less than 10000 M⁻¹. Further, on RS-IIL (footnote b), the pKd was less than 4.00.

For `CO[C@@H]1O[C@@H](CO)[C@@H](O)[C@@H](O)[C@@H]1O` [Me-α-L-Gal, methyl α-L-galactopyranoside], the “-TΔS” value in the assay with PA-IIL wild type (setting [4]) was -2.3 (± 0.7) kJ/mol; on PA-IIL S22A (S22A, ITC at 25°C), -8.3 (± 0.3) kJ/mol; at PA-IIL G24N, -15.0 (± 0.9) kJ/mol. In addition, the KA in the assay on PA-IIL wild type (setting [4]) is on record as 85.0 (± 5.0) ×10^4M^-1. Further, the pKd at PA-IIL wild type (setting [4]) is 5.93. For the same compound, the ΔH was -31.5 (± 0.6) kJ/mol with PA-IIL wild type (setting [4]); -19.2 (± 0.2) kJ/mol at PA-IIL S22A (S22A, ITC at 25°C); -26.8 (± 1.7) kJ/mol at PA-IIL S23A; -18.7 (± 0.3) kJ/mol on PA-IIL G24N.

With `CO[C@H]1O[C@H](CO)[C@@H](O)[C@H](O)[C@@H]1O` [Me-β-D-Man, methyl α-D-mannopyranoside], in the assay on RS-IIL (setting [5]), the “-TΔS” value is -13.0 (± 0.2) kJ/mol, the KA is given as 438 (± 2.0) ×10^4M^-1, the pKd is 6.64 and the ΔG is recorded as -37.9 (± 0.1) kJ/mol. On PA-IIL S22A (S22A versus wild type PA-IIL), the “times higher affinity of the mutant compared to the wild type protein” value was found to be 25 times and the “total difference in free energy, mutant versus wild type” value is -1.91 kcal/mol. For the same compound, the “-TΔS” value at PA-IIL S22A (S22A, ITC at 25°C) was -7.4 (± 0.7) kJ/mol. Besides, the “favourable entropic contribution TΔS” value on PA-IIL S22A (S22A, sign as TΔS) was 1.77 kcal/mol. The ΔH at PA-IIL S23A was -16.7 (± 2.3) kJ/mol. The KA at PA-IIL S23A (0.1 M Tris-HCl, 30 μM CaCl2, pH 7.5) is 1.91 (± 0.33) ×10^4M^-1. Further, the “-TΔS” value at PA-IIL S23A (calculated from ΔG and ΔH) is -7.7 (± 2.7) kJ/mol. Moreover, on PA-IIL G24N, the ΔH was -27.1 (± 0.8) kJ/mol and the “-TΔS” value is listed as 2.1 (± 0.9) kJ/mol. The “entropic contribution as share of the total Gibbs energy change” value on PA-IIL G24N (unfavourable entropic contribution) came out at 8%.

In assay [1], “PA-IIL lectin from Pseudomonas aeruginosa, mutant G24N (natural protein)” had a stoichiometry N of 4.

In assay [2], “PA-IIL lectin from Pseudomonas aeruginosa, mutant S22A (natural protein)” yielded a stoichiometry N of 4.

“PA-IIL lectin from Pseudomonas aeruginosa, mutant S23A (natural protein)” displayed a stoichiometry N in assay [3] of 4.
